From US8895725B2, “Use of 9, 10-anthraquinone compounds” (Shanghai Institute of Pharmaceutical Industry, priority 2008, dated 2014)
Converted amounts (≈) assume the structure as drawn. “Also recorded” adds a separate entry of the source. Like-named read-outs stand apart in the source and are kept apart here.

Experiments:
HCV = assay: Focus reduction assay of HCV infection; assay type: cell-based; settings: for inhibition effect towards HCV: summary in words; for inhibition at 100 µg/mL: 100 μg/ml; for Inhibition Rate of the number of Virus foci (%): cells pre-incubated 1 hour with interferon
Protocol: The stock solutions with a concentration of 20 mg/ml were prepared by dissolving the samples in DMSO and were kept at 4° C. When testing, the stored stock solutions were diluted to 5 mg/ml and 2 mg/ml with DMSO.
(§1) The derivative cell line of Huh7 and the virus strain of HCV were used in this experiment. The virus strain can produce high-titer and infectious virus particles of HCV in the cells.
(§2) The cells were inoculated in 96-well flat-bottomed plates at a concentration of 1×10^4/100 μl/well and cultivated overnight. The HCV supernatant was diluted to 1×10^3 ffu/ml with complete medium (DMEM contains 10% fetal bovine serum, 100 U/ml penicillin and 100 μg/ml streptomycin) and infected the cells at 50 ffu/well.
The sample solutions with different concentrations (2 mg/ml and 1 mg/ml) were respectively diluted in complete medium at a volume ratio of 1:50 to reach the concentrations of 40 μg/ml and 20 μg/ml. […] After 1 hour of incubation at room temperature, the culture medium in the 96-well flat-bottomed plates was discarded, then 100 μl of the above mixed solution was added to each well, and then was cultured for 8 hours in 37° C. incubator containing 5% CO2. After that, the supernatant was discarded, then was washed once with phosphate buffer without calcium or magnesium ion (DPBS). 150 μl of fresh complete medium was added to each well, and then was cultured for 64 hours in 37° C. incubator containing 5% CO2. 150 μl of 4% paraformaldehyde (PFA) was added to each well, and was fixed at room temperature for 15 min. The supernatant was discarded, then was washed with DPBS for 3 times, and Immune fluorescence staining was conducted with anti HCV-E2 human monoclonal antibody and anti-human secondary antibody labeled by immunofluorescein, then was watched with fluorescence microscope and the amounts of virus colony were recorded.
In the negative control group, DMSO was used instead of the sample solutions, and other conditions were the same as that in sample testing.
The solution of the interferon was diluted to 5, 50 and 500 IU/ml respectively with complete medium, and were hatched for 1 hour with cells, then diluted virus solution was added. Other conditions were the same as that in the extract testing. The inhibition rate=(the amount of virus colony in the negative control group−the amount of viruscolony in the experimental group)/the amount of virus colony in the negative control group×100%.

[1] = system: derivative cell line of Huh7; assay: Cytotoxicity (cell density versus negative control group); assay type: cell-based
Protocol: as §1, §2
Instructions to Cytotoxicity: Noncytotoxic=the cell density of the experimental group/the cell density of the negative control group[…] Cytotoxicity=the cell density of the experimental group/the cell density of the negative control group<80%

[2] = Hepatitis C virus, Huh-7, 10 μg/ml, Huh7 derivative cells, read-out: Inhibition Rate of the number of Virus foci (%)
[3] = Hepatitis C virus, Huh-7, 5 μg/ml, Huh7 derivative cells, read-out: Inhibition Rate of the number of Virus foci (%)
[4] = Hepatitis C virus, Huh-7, 20 μg/ml, Huh7 derivative cells, read-out: Inhibition Rate of the number of Virus foci (%)
[5] = Hepatitis C virus, Huh-7, read-out: Inhibition Rate of the number of Virus foci (%)
[6] = Hepatitis C virus, Huh-7, Huh7 derivative cells, read-out: Inhibition Rate of the number of Virus foci (%)

O=C1c2ccccc2C(=O)c2c1cc(S(=O)(=O)[O-])c(O)c2O.[Na+] [Alizarin Red S, 1,2-dihydroxylanthraquinone-3-sulfonate] was tested, and the inhibition at 10 µg/mL (HCV; [2]) was 22% and the “inhibition effect towards HCV” value (HCV) was “obvious inhibition effect”.
Work on Cc1cc(O)c2c(c1)C(=O)c1cccc(O)c1C2=O [Chrysophanic acid, 1,8-dihydroxyl-6-methyl anthraquinone] yielded an inhibition at 5 µg/mL (HCV; [3]) of 21%, an inhibition at 10 µg/mL (HCV; [2]) of 17% and an inhibition at 20 µg/mL (HCV; [4]) of 48%. For the same compound, the “inhibition effect towards HCV” value (HCV) was “obvious inhibition effect”.
For O=C1c2cccc(O)c2C(=O)c2c(O)cc(CO)cc21 [Aloe-emodin, 1,8-dihydroxyl-3-hydroxymethyl anthraquinone], the inhibition at 5 µg/mL (HCV; [3]) was 95%, the inhibition at 20 µg/mL (HCV; [4]) was 100% and the “inhibition effect towards HCV” value (HCV) was “obvious inhibition effect”.
With O=C1c2ccccc2C(=O)c2c(O)ccc(O)c21 [1,4-dihydroxyl-9,10-anthraquinone] the inhibition at 5 µg/mL (HCV; [5]) was 81%, the “inhibition effect towards HCV” value (HCV) was “obvious inhibition effect” and the Cytotoxicity ([1]; 5 μg/ml) was “None”.
COc1cc(O)c2c(c1)C(=O)c1cc(C)cc(O)c1C2=O [Physcion, 1,8-dihydroxyl-3-methoxy-6-methyl anthraquinone] gave an IC50 (HCV; Hepatitis C virus) of 8 ng/mL (≈ 0.0281 µM), an inhibition at 5 µg/mL (HCV; [3]) of 100% and an inhibition at 20 µg/mL (HCV; [4]) of 100%. For the same compound, the “anti-HCV activity compared with the other compounds” value (HCV; ranking in words) was “better than other compounds; also recorded: the best”, the “inhibition effect towards HCV” value (HCV) was “obvious inhibition effect” and the Cytotoxicity ([1]; 5 μg/ml) was “None”. For the same compound, the Cytotoxicity ([1]; 20 μg/ml) was “None”.
For O=c1cc(-c2ccc(O)cc2)oc2cc(O)cc(O)c12 [Apigenin, reference compound], the inhibition at 5 µg/mL (HCV; [3]) was 11% and the inhibition at 20 µg/mL (HCV; [4]) was 47%.
O=C1c2ccccc2C(=O)c2ccccc21 [Anthraquinone, 9,10-anthraquinone] was tested, and the inhibition at 5 µg/mL (HCV; [3]) was 44% and the “inhibition effect towards HCV” value (HCV) was “obvious inhibition effect”.
For COc1cc(O)c2c(c1)C(=O)c1cc(C)cc(O[C@@H]3OC(CO)[C@@H](O)C(O)C3O)c1C2=O (stereo partly drawn) [Physcion-8-O-β-D-glucoside, physcion-8-O-β-D-glucoside], the inhibition at 100 µg/mL (HCV; [6]) was 40%, the “inhibition effect towards HCV” value (HCV) was “obvious inhibition effect” and the Cytotoxicity ([1]; 100 μg/ml) was “None”.
For Cc1cc(O[C@@H]2OC(CO)[C@@H](O)C(O)C2O)c2c(c1)C(=O)c1cc(O)cc(O)c1C2=O (stereo partly drawn) [Emodin-8-O-β-D-glucoside, emodin-8-O-β-D-glucoside], the inhibition at 100 µg/mL (HCV; [6]) was 40%, the “inhibition effect towards HCV” value (HCV) was “obvious inhibition effect” and the Cytotoxicity ([1]; 100 μg/ml) was “None”.
In the case of Cc1cc(O)c2c(c1)C(=O)c1cc(O)cc(O)c1C2=O [Emodin, 1,3,8-dihydroxyl-6-methyl anthraquinone], the inhibition at 5 µg/mL (HCV; [3]) is reported as 52%, the inhibition at 10 µg/mL (HCV; [2]) is reported as 79% and the inhibition at 20 µg/mL (HCV; [4]) is reported as 99%. The “inhibition effect towards HCV” value (HCV) was “obvious inhibition effect”.
O=C1c2cccc(O)c2C(=O)c2c(O)cccc21 [1,8-Dihydroxyl-9,10-anthraquinone, 1,8-dihydroxyl-9,10-anthraquinone] was tested, and the inhibition at 0.04 µg/mL (HCV; Hepatitis C virus, Huh-7, 0.04 μg/ml, Huh7 derivative cells, read-out: Inhibition Rate of the number of Virus foci (%)) was 45%, the inhibition at 0.2 µg/mL (HCV; Hepatitis C virus, Huh-7, 0.2 μg/ml, Huh7 derivative cells, read-out: Inhibition Rate of the number of Virus foci (%)) was 100% and the “inhibition effect towards HCV” value (HCV) was “obvious inhibition effect”.
In the case of O=C1c2ccccc2C(=O)c2c1ccc(O)c2O [Alizarin, 1,2-dihydroxyl-9,10-anthraquinone], the inhibition at 10 µg/mL (HCV; [5]) is reported as 31%, the “inhibition effect towards HCV” value (HCV) is reported as “obvious inhibition effect” and the Cytotoxicity ([1]; 10 μg/ml) is reported as “None”.
O=C(O)c1cc(O)c2c(c1)C(=O)c1cccc(O)c1C2=O [Rhein, 1,8-dihydroxyl-3-carboxyl anthraquinone] was tested, and the inhibition at 5 µg/mL (HCV; [5]) was 44%, the inhibition at 20 µg/mL (HCV; [5]) was 82% and the “inhibition effect towards HCV” value (HCV) was “obvious inhibition effect”. The Cytotoxicity ([1]; 5 μg/ml) was “None” and the Cytotoxicity ([1]; 20 μg/ml) was “None”.
α-interferon [reference compound] was tested, and the “Inhibition Rate of the number of Virus foci (%)” value (“Inhibition Rate … (%)” for short) (HCV; 5 IU/ml) was 53%, the “Inhibition Rate … (%)” value (HCV; 50 IU/ml) was 79% and the “Inhibition Rate … (%)” value (HCV; 500 IU/ml) was 98%.
